# pIC50: −log10 of the molar value.
# How the values were obtained:
# [1] = test system: 57 human cancer cell lines; test: NCI-60 cancer cell panel; assay type: cell-based; conditions: 72 h, 3 days, in five cell lines across three cancer types, read-out: cell growth inhibition
# Procedure: Inhibitors were tested at 10 µM. Data shown is the mean of two technical replicates and is shown relative to the no-drug control, and relative to the time zero number of cells.
# USP9X = test system: T1, USP9X; test: DUB IP-MS in MCF-7 cell lysates, USP9X; assay type: biochemical, human; conditions: 50 µM
# T1 construct: endogenous in cells; host or cells: MCF-7 cell lysate
# Procedure: MCF-7 cells have been profiled for active DUBs previously (Pinto-Fernández et al, [2019]). Lysates were generated as described by others (Turnbull et al, [2017]) using 30 s freeze-thaw cycles (thrice) in lysis buffer (50 mM Tris [pH 7.4], 5 mM MgCl2 × 6 H2O, 0.5 mM EDTA [pH 8.0], 250 mM sucrose and 1 mM DTT) at pH 7.5. […] A pre-treatment of cell lysates with 0.5 µg Ub-VS was included for a baseline DUB response to the Ub-VS probe. 0.1 µg 3X-FLAG-Ub-VS probe was added to samples and incubated for 5 min at 37 °C. […] Samples were washed thrice with lysis buffer and eluted from the resin with lysis buffer supplemented with 1% (w/v) SDS following a 10 min incubation. Two consecutive elutions were pooled, and samples were stored at −80 °C until processing.
# DNA was hydrolysed with the addition of 2 µL neat TFA, and lysates were neutralised to pH 8.5 by the addition of 1 M Tris-HCl as previously described (Dagley et al, [2019]). Protein concentration was determined using Pierce™ BCA Protein Assay Kit (Thermo Fisher Scientific) following the manufacturer’s instructions. For DUB IP-MS, samples were processed using S-Trap spin columns (Profiti) by following the manufacturer’s instructions. […]
# UO-31 cells = test: Colony formation assay, UO-31; assay type: cell-based, human; conditions: 10 µM, 7–12 days
# Procedure: Cells were seeded at low density (200–4000 cells per well) after initial optimisation in a six-well tissue culture-treated plate (Falcon). Twenty-four hours post seeding, media was replaced, and the inhibitor was added. Cells were left to grow into colonies between 7 and 12 days, depending on the cell line. For analysis, the media was removed, and the cells were fixed with 10% (w/v) formalin for 10 min. Colonies were stained with crystal violet (Sigma-Aldrich, 0.5% [w/v] in 20% [v/v] MeOH) for 10 min and washed thrice with distilled H2O. Plates were imaged using the ChemiDoc imaging system (Bio-Rad) and analysed using the ImageJ ColonyArea plugin as described previously (Guzmán et al, [2014]).
# [2] = test system: human dermal fibroblasts (HDF); test: IncuCyte live-cell imaging cell death, HDF; assay type: cell-based; conditions: 50 µM (Appendix Fig. S4E)
# Procedure: Cells were seeded at varying densities (1000–8000 cells per well) after initial optimisation in a 96-well tissue culture-treated plate (Thermo Fisher Scientific). Cells were incubated o/n, and the next day, inhibitors and controls diluted in cell media were added to the cells to a final volume of 200 μL per well. Cell death was measured using PI (Sigma-Aldrich). Cells were imaged with four images per well every 2 h for up to 96 h using the IncuCyte live-cell analysis system (S3, Sartorius). Cell proliferation data were analysed using Microsoft Excel by normalising confluence to control conditions. For cell killing readouts, the number of PI-positive cells was normalised to the control conditions for each timepoint.
# USP9X/USP24 chimera Δβ = molecular target: T2, USP9X/USP24 chimera Δβ (Homo sapiens, UniProt Q93008, A1766S/D1761E/DEL1924-1943/K1759R/L1762V/Y1757F); test: Ub-Rho cleavage assay, USP9X/USP24 chimera Δβ; assay type: biochemical
# T2 construct: His/SUMO (pOPIN-S vector) (N, cleaved yes); made in house; host or cells: E. coli BL21
# Description: (§1) An expression construct for the USP9X catalytic domain (aa 1551–1970, […]: Q93008-1), was codon optimised for bacterial expression, synthesised in gBlock format (Integrated DNA Technologies) and cloned into the pOPIN-S vector (Berrow et al, [2007]), which was digested with KpnI and HindIII using In-Fusion™ HD cloning (Takara Clontech). […] For the USP9X Δβ catalytic domain a deletion construct ΔE1924-K1943 and for USP9X/USP24 chimera, a construct with USP9X Y1757-A1766 replaced with the USP24 (NCBI Reference Sequence: NP_056121) aa motif […] was used. All constructs were confirmed by Sanger sequencing (AGRF).
# (§2) The reaction was stopped through the addition of 10 mM citric acid. The assay was performed in 384-well format with a total reaction volume of 16 µL. Data was collected using the ClarioSTAR plate reader (BMG Labtech) at an emission of 535 nm. […] IC50 values presented in our study are the mean of three independent biological repeats unless indicated otherwise.
# [3] = molecular target: T3, USP9X Δβ (USP9X β-hairpin deletion) (Homo sapiens, UniProt Q93008, DEL1924-1943); test: Ub-Rho cleavage assay, USP9X Δβ variant; assay type: biochemical
# T3 construct: His/SUMO (pOPIN-S vector) (N, cleaved yes); made in house; host or cells: E. coli BL21
# Description: as §1, §2
# USP9X catalytic domain = molecular target: T4, USP9X catalytic domain (Homo sapiens, UniProt Q93008); test: K48-linked di-ubiquitin cleavage assay; assay type: biochemical; conditions: 50 µM compound
# T4 construct: His/SUMO (pOPIN-S vector) (N, cleaved yes); made in house; host or cells: E. coli BL21
# T4 sequence (Q93008 1551-1970): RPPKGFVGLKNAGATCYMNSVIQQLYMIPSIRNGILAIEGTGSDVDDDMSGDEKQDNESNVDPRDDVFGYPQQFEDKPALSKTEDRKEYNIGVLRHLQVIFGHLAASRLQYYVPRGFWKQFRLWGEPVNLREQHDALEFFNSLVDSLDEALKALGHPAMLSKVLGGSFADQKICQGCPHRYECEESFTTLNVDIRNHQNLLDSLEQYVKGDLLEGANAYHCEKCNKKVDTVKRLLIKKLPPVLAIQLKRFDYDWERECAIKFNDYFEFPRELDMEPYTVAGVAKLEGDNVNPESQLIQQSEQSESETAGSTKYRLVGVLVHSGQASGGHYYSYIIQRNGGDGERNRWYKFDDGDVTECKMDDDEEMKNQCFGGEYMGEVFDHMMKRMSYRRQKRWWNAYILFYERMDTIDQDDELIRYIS
# Procedure: For inhibitor activity assays, USP9X catalytic domain (di-ubiquitin cleavage assay: 750 nM, ubiquitin-probe assays: 2.5 µM) was pre-incubated with USP9X inhibitors for 30 min at ambient temperature and subsequently mixed with di-ubiquitin (final concentration 2 µM) in assay buffer (25 mM Tris [pH 8.0], 150 mM NaCl, 10 mM DTT) at pH 8.0 or was mixed with ubiquitin-propargylamide (Ub-PA)/ubiquitin-vinyl sulfonate (Ub-VS) probes at a final concentration of 10 µM in assay buffer. For both assays, the mixture was incubated over a time course, and the reaction was stopped by mixing samples with 2× LDS sample buffer (Invitrogen) supplemented with 3% (v/v) 2-mercaptoethanol. All protein samples were run on a 4–12% Bis-Tris SDS-PAGE gradient gel (Invitrogen) for 60 min at 140 V. The gel was stained with InstantBlue® (Abcam) and imaged.
# T3 sequence (Q93008 with tags, fused parts or gaps DEL1924-1943): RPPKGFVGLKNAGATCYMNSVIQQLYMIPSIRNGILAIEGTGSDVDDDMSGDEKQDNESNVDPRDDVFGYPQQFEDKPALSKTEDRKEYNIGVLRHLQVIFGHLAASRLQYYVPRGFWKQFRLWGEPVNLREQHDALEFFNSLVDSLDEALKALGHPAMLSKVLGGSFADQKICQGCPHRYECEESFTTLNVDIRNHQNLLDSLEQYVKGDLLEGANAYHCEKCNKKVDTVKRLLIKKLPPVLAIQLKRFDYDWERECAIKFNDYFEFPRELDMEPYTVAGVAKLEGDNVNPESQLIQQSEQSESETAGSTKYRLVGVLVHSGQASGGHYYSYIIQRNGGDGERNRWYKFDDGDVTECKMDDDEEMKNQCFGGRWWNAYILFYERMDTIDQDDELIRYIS
# T2 sequence (Q93008 with tags, fused parts or gaps Y1757F/K1759R/D1761E/L1762V/A1766S/DEL1924-1943): as the sequence (Q93008 with tags, fused parts or gaps DEL1924-1943) above, with Y207F, K209R, D211E, L212V, A216S counted along it
compound,measurement,setting,value
Cc1[nH]c2ccc(C(=O)N3CCN(S(=O)(=O)c4ccc5c(c4)OCCO5)CC3)cc2c1C [WEHI-092],inhibition at 10 µM,[1],> 50%
same,inhibition of USP9X in MCF-7 lysate (DUB IP-MS),USP9X,inhibited all active USP9X in the lysate
same,"clonogenic potential, UO-31",UO-31 cells,sensitive
same,toxicity to HDFs,[2],non-lethal and non-toxic
same,activity of USP9X/USP24 chimera Δβ in presence of compound,USP9X/USP24 chimera Δβ,remained fully active at concentrations up to 10 µM
same,pIC50,[3],6.61
same,cleavage of K48-linked di-ubiquitin,USP9X catalytic domain,inhibited cleavage of K48-linked di-ubiquitin
